Results from article PMC9953885 (Biosensors, 2023).
Structures can show the parent of a compound that is named as a salt.

Target: T1, human pancreatic lipase (hPL) (Homo sapiens, UniProt P16233)
T1 construct: gene PNLIP
T1 sequence (P16233 17-465): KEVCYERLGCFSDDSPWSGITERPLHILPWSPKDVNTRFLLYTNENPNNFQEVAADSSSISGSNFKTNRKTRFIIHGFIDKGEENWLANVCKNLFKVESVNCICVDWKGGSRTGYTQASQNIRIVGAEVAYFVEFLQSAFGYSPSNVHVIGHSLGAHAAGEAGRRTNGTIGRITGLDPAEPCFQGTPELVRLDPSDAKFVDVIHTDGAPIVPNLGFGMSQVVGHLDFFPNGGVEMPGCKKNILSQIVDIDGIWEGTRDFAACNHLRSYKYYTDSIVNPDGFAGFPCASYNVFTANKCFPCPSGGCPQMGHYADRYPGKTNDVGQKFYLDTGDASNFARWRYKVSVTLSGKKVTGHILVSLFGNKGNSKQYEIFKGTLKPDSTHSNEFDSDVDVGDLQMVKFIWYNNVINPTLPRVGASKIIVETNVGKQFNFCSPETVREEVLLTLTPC
Details: 10 µM; inhibitor

| Compound | % of control remaining [%] |
| --- | --- |
| Cc1coc2c1CCC(C)C2 (centres unmarked) [Menthofuran] | 108.33 |
| CC(C)OC(=O)C(C)(C)Oc1ccc(C(=O)c2ccc(Cl)cc2)cc1 [Fenofibrate] | 94.68 |
| CCc1c2c(nc3ccc(OC(=O)N4CCC(N5CCCCC5)CC4)cc13)-c1cc3c(c(=O)n1C2)COC(=O)[C@]3(O)CC [Irinotecan] | 105.25 |
| Cc1nc(Nc2ncc(C(=O)Nc3c(C)cccc3Cl)s2)cc(N2CCN(CCO)CC2)n1 [Dasatinib] | 91.97 |
| N=C(N)NC(=O)c1nc(Cl)c(N)nc1N [Amiloride hydrochloride] | 109.84 |
| O=c1cc(-c2ccc(O)cc2)oc2cc(O)cc(O)c12 [Apigenin] | 102.46 |
| C[C@@H]1CC[C@@]2(NC1)O[C@H]1C[C@H]3[C@@H]4CC=C5C[C@@H](O[C@@H]6O[C@H](CO)[C@@H](O[C@@H]7O[C@@H](C)[C@H](O)[C@@H](O)[C@H]7O)[C@H](O)[C@H]6O)CC[C@]5(C)[C@H]4CC[C@]3(C)[C@H]1[C@@H]2C [Khasianine] | 102.50 |
| O=C1C=CC[C@@H]2[C@H]3CCC[N+]4([O-])CCC[C@@H](CN12)[C@@H]34 (some centres unmarked) [Oxysophocarpine] | 98.58 |
| CCOC(=O)C1=C(COCCN)NC(C)=C(C(=O)OC)C1c1ccccc1Cl (centres unmarked) [Amlodipine] | 85.85 |
| COc1c(/C=C/C(=O)c2ccc(O)cc2)ccc(O)c1O [Licochalcone B] | 58.04 |
| C[C@]12CCC(=O)C=C1CC[C@@H]1[C@@H]2[C@@H](O)C[C@@]2(C)[C@H]1CC[C@]2(O)C(=O)CO [Hydrocortisone] | 56.27 |
| COc1ccc2cc3[n+](cc2c1O)CCc1cc2c(cc1-3)OCO2 [Berberrubine] | 86.09 |
| COc1ccc2c(c1)c(CC(=O)O)c(C)n2C(=O)c1ccc(Cl)cc1 [Indometacin] | 102.95 |
| Cc1cc(=O)c2c(O)c3c(O[C@@H]4O[C@H](CO)[C@@H](O)[C@H](O)[C@H]4O)cccc3cc2o1 [Cassiaside] | 81.67 |
| CN1CCN(C2=Nc3cc(Cl)ccc3Nc3ccccc32)CC1 [Clozapine] | 97.86 |
| C=C1C(=O)O[C@@H]2C[C@@]3(C)CCC[C@H](C)C3=C[C@H]12 [Alantolactone] | 61.11 |
| CC[C@H]1CN2CC[C@@]3(C(=O)Nc4ccccc43)[C@@H]2C[C@@H]1/C(=C\OC)C(=O)OC [Isorhynchophylline] | 87.99 |

Second part, the compound after the results:

| % of control remaining [%] | Compound |
| --- | --- |
| 120.79 | CC(NC(C)(C)C)C(=O)c1cccc(Cl)c1 (centres unmarked) [bupropion hydrochloride] |
| 85.42 | COC(=O)[C@@]1(C)CC[C@]2(C(=O)O)CC[C@]3(C)C(=CC[C@@H]4[C@@]5(C)C[C@H](O)[C@H](O)[C@@](C)(CO)[C@@H]5CC[C@]43C)[C@@H]2C1 [phytolaccagenin] |
| 85.09 | O=C(CCc1ccc(O)cc1)c1c(O)cc(O)cc1O[C@@H]1O[C@H](CO)[C@@H](O)[C@H](O)[C@H]1O [Phlorizin dihydrate] |
| 81.19 | COc1cc(O)c(CC=C(C)C)c(O)c1C(=O)/C=C/c1ccc(O)cc1 [Xanthohumol] |
| 91.86 | CC(C)OC(=O)OCOP(=O)(CO[C@H](C)Cn1cnc2c(N)ncnc21)OCOC(=O)OC(C)C [Tenofovir disoproxil] |
| 80.45 | COc1c(/C=C/C(=O)c2ccc(O)c(CC=C(C)C)c2)ccc(O)c1O [Licochalcone D] |
| 98.69 | COCCOC(=O)C1=C(C)NC(C)=C(C(=O)OC(C)C)C1c1cccc([N+](=O)[O-])c1 (centres unmarked) [Nimodipine] |
| 76.06 | O=c1cc(-c2ccc(O)c(O)c2)oc2c([C@@H]3O[C@H](CO)[C@@H](O)[C@H](O)[C@H]3O)c(O)cc(O)c12 [Orientin] |
| 84.18 | CCC(C)(C)C(=O)O[C@H]1C[C@@H](C)C=C2C=C[C@H](C)[C@H](CC[C@@H]3C[C@@H](O)CC(=O)O3)[C@H]21 [Simvastatin] |
